Experimental data reported in patent publication US20150177246A1, “FUSION GENE OF CEP55 GENE AND RET GENE” (NATIONAL CANCER CENTER, priority 2012, published 2015).

Tested on: downstream signals (STAT3, AKT, MAPK) of the CEP55-RET fusion polypeptide in NIH-3T3 cells
Experiment: Western blotting of downstream signals of the RET fusion polypeptide after serum starvation and culture with a RET tyrosine kinase inhibitor
Assay type: cell-based, murine
Details: inhibitor 1 μM in medium after serum starvation; NIH-3T3 cells expressing wild-type CEP55-RET; FIG. 7
Excerpt: In this figure, “CEP55-RET” represents the results for cell lines expressing the CEP55-RET fusion polypeptide, and “KIF5B-RET” represents the results for cell lines expressing the KIF5B-RET fusion polypeptide. […] The “STAT3” and “p-STAT3 (Y705)” rows show the results of detecting STAT3 and phosphorylated STAT3, respectively. The “AKT” and “p-AKT (S473)” show the results of detecting AKT and phosphorylated AKT, respectively. The “MAPK” and “p-MAPK (T202/Y204)” rows show the results of detecting MAPK and phosphorylated MAPK, respectively.
Next, normal murine fibroblast line NIH-3T3 cells were infected with each of the thus-prepared retroviral vectors to obtain cell lines stably expressing the wild-type or the mutated CEP55-RET fusion polypeptide.
In addition, the cell lines stably expressing the wild-type or the mutated RET fusion polypeptide were each cultured in a liquid medium, subjected to serum starvation, and then cultured again with the medium being replaced with the one supplemented with a RET tyrosine kinase inhibitor (vandetanib or XL184). Protein from each of the thus-obtained cell lines was extracted and subjected to Western blotting analysis using antibodies against various phosphorylated or unphosphorylated proteins to thereby analyze the downstream signals of the RET fusion polypeptides.

COc1cc2c(Nc3ccc(Br)cc3F)ncnc2cc1OCC1CCN(C)CC1 [V, 4-(4-bromo-2-fluoroanilino)-6-methoxy-7-(1-methylpiperidin-4-ylmethoxy)quinazoline]
phosphorylation of MAPK, p-MAPK (T202/Y204705): significantly suppressed
phosphorylation of STATS, p-STAT3 (Y705): significantly suppressed
